# Source: US20220362249A1, “METHODS FOR TREATING […]” (PTC Therapeutics MP, Inc., priority 2019, published 2022)
# Where a name gives a salt, the structure may show the parent alone.
# Tests used:
# blood Phe [1] = assay: Reduction of blood Phe in patients with PKU, randomized crossover of PTC923 vs sapropterin dihydrochloride; assay type: in vivo, human; details: for Mean (SD) blood Phe, At baseline: 20 mg/kg period, Day 1 pre-dose; for Least squares mean (SE) change from baseline in blood Phe / Mean (SD) blood Phe, Change / Mean (SD) blood Phe, On treatment: 20 mg/kg/day oral, 7 days; for Mean (SD) blood Phe, On treatment: mean of days 3, 5 and 7
# Method: Following screening for eligibility, a 7-day run-in period commenced. Patients then received 7 days of once-daily oral treatment with either PTC923 20 mg/kg/day (“low dose”), or PTC923 60 mg/kg/day or sapropterin dihydrochloride, in a random order. PTC923 (formerly CNSA-001) is oral sepiapterin. Each patient was randomized to one of six treatment sequences (FIG. 2). The randomization in six different treatment sequences was intended to minimize carry over effect, treatment period effect, patient fatigue, and natural fluctuations in blood Phe levels. A 7-day washout period separated each active treatment period. Patients were asked to maintain their usual pre-study diet, including consumption of amino acid mixtures if prescribed, and were monitored throughout the study by a metabolic dietician.
# Blood samples for measurement of Phe were taken on 7, 5, 3, and 1 days before randomization. During treatment periods, blood was taken pre-dose for day 1 and post-dose for days 3, 5 and 7. During the washout periods, blood was taken for measurement of Phe on days 1, 3, 5, and 7. All samples were taken under fasting conditions or no earlier than 3 hours following a meal and at the same time of day. Blood Phe was measured using a validated LC-MS-MS technique of dried blood sampling via Volumetric Absorptive Microsampling (VAMS®) using Mitra® 4-sampler clamshells, at a central bioanalytical laboratory (Agilex Biolabs Pty Ltd).
# The main objective of the study was to assess the efficacy of PTC923 measured as the mean blood Phe change from baseline. The efficacy population consisted of all patients who were randomized and had blood Phe measurements before treatment and at days 3, 5 and 7 of treatment from at least one treatment period. The safety population consisted of all patients who were randomized and who received any dose of study treatment. The sample size calculation was based on an all-comers, placebo-controlled regulatory study of sapropterin with an observed mean decrease in blood Phe of 99 μmol/L and standard deviation of 220 μmol/L, and assumed a true mean decrease in blood Phe of 300 μmol/L with 80% power utilizing a 2-sided α of 0.05.
# Response to PTC923 was evaluated by measuring the mean change from baseline in blood Phe (calculated as the mean of measurements at days 3, 5 and 7 of each treatment period). Day 1 pre-dose blood Phe concentrations for each treatment period served as the individual patient specific baseline for that period.
# The change from baseline in blood Phe of each treatment period was modelled using a linear mixed model for repeated measures (MMRM). The efficacy model included fixed effects for baseline for each treatment period, treatment group, sequence, period, and a random subject effect within each sequence, with a first order autoregressive AR (1) covariance structure. No unplanned covariates were included.
# Pairwise comparisons in changes from baseline in Phe were performed between each PTC923 treatment and sapropterin treatment by calculating the least squares means with Dunnet's method of adjustment for multiple comparisons. The estimated change in blood Phe levels, their standard errors (SE) and associated p-values were calculated for each pairwise comparison. Dunnet's method of adjustment was used to account for the multiple comparisons of the test groups against the control group. This adjustment ensured that the overall Type I error rate under the null hypothesis was maintained despite multiple test groups being compared to the single control group.
# The overall mean changes in blood Phe for each treatment were calculated and the standard deviations (SD) were determined.
# A prespecified sensitivity analysis excluded treatment periods where baseline Phe was <300 μmol/L and a responder analysis looked at patients with baselines ≥300 μmol/L who responded to sapropterin and/or to PTC923 treatment by ≥20% reduction.
# [2] = tested on: phenylalanine plasma concentrations; details: cited from earlier work
# blood Phe [3] = details: standard deviation of 220 μmol/L; cited from earlier work
# [4] = Adverse events in patients with PKU on PTC923 or sapropterin dihydrochloride; assay type: in vivo, human; details: 20 mg/kg
# Excerpt: PTC923 safety was monitored and adverse events (AEs) were coded using the Medical Dictionary for Regulatory Activities (MedDRA®) version 21.0. Treatment-emergent adverse events (TEAEs) were defined as AE that began on or after first dose of study drug. A TEAE was associated with the study treatment currently being received, or the last study treatment before its onset. A treatment-related TEAE was, in the judgment of the investigator possibly, probably or definitely related to treatment. A serious AE (SAE) was defined as resulting in death, life-threatening AE, inpatient hospitalization or prolongation of existing hospitalization, a persistent or significant disability/incapacity or a substantial disruption of the ability to conduct normal life functions, or a congenital anomaly/birth defect.
# [5] = Subjects with classical PKU (N = 11)
structure (smiles),measurement,setting,value
"C[C@H](O)[C@H](O)[C@H]1CNc2nc(N)[nH]c(=O)c2N1 [sapropterin dihydrochloride, reference compound]",Proportion of patients achieving blood Phe <360 μmol/L,"blood Phe [1]; 20 mg/kg, n of 24",42%
same,"Mean (SD) blood Phe, At baseline",blood Phe [1]; All subjects (N = 24),710.4 (370.0) μmol/L
same,Least squares mean (SE) change from baseline in blood Phe,blood Phe [1]; All subjects (N = 24),−91.5 (41.7) μmol/L
same,"Mean (SD) blood Phe, Change",blood Phe [1]; All subjects (N = 24),−90.8 (226.9) μmol/L
same,"Mean (SD) blood Phe, On treatment",blood Phe [1]; All subjects (N = 24),619.5 (475.3) μmol/L
same,Least squares mean change from baseline in blood Phe to first Phe measurement (Day 3),"blood Phe [1]; Day 3, 20 mg/kg",-72.3 µmol/L
same,"Mean (SD) blood Phe, At baseline",blood Phe [1]; [5],903.5 (422.5) μmol/L
same,"Mean (SD) blood Phe, Change",blood Phe [1]; [5],10.7 (221.6) μmol/L
same,Least squares mean (SE) change from baseline in blood Phe,"blood Phe [1]; Subjects with classical PKU (N = 11), dihydrochloride, 20 mg/kg/day",-2.8 µmol/L
same,Least squares mean (SE) change from baseline in blood Phe,"blood Phe [1]; Subjects with classical PKU (N = 11), listed as Sapropterin dihydrochloride, dihydrochloride, 20 mg/kg/day",−2.8 (62.0) μmol/L
same,"Mean (SD) blood Phe, On treatment",blood Phe [1]; [5],914.2 (538.7) μmol/L
same,Least squares mean change from baseline in blood Phe,"blood Phe [1]; group of 12 responders (Phe reduction ≥20%, baseline ≥300 μmol/L), 20 mg/kg",-139.70 µmol/L
same,Non-classical subjects normalized (blood phenylalanine less than 120 micromole per liter),blood Phe [1]; non-classical subjects,15.4%
same,Classical PKU subjects that respond to treatment (historically),[2],about 10%
same,Observed mean decrease in blood Phe,blood Phe [3],99 µmol/L
same,Patients reporting any adverse event,[4],21%
same,Patients reporting severe AE,[4],0%
same,Patients reporting treatment-related AE,[4],0%
same,Headache (all-cause AE),[4]; transient,4%
